Measured values published in the Kinase Knowledgebase extract (Sharma et al. 2016).

Target: PIK3CA (human) (UniProt P42336)
Assay: Assessment of PI3KCA Kinase Activity

Chain of PIK3CA (human) (P42336 whole entry, looked up): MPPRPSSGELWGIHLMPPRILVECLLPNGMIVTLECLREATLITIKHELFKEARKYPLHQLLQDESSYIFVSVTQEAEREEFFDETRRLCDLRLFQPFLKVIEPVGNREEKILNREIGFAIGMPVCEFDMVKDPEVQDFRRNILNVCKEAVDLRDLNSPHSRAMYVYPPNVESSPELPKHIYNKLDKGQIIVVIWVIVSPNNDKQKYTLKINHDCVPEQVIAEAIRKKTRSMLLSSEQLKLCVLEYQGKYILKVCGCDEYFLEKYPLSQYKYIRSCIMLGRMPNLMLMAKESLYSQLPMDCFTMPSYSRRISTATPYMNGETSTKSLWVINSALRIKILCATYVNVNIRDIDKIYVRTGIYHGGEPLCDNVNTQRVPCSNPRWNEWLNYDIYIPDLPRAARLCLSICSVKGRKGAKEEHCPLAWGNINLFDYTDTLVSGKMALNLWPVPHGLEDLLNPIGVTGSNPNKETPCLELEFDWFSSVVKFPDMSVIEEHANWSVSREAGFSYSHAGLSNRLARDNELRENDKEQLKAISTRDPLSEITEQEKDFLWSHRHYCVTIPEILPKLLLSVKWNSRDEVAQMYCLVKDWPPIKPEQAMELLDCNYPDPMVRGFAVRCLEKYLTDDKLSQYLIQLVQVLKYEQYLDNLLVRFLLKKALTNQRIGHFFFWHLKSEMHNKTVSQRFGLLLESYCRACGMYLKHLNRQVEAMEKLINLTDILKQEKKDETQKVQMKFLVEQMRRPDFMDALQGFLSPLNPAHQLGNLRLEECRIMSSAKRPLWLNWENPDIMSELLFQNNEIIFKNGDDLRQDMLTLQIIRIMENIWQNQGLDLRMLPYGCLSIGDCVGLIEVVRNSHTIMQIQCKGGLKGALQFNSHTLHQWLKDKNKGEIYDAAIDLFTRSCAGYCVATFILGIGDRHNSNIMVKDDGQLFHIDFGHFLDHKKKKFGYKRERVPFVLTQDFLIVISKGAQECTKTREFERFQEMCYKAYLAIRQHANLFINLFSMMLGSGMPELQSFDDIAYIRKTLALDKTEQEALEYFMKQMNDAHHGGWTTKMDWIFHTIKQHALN

IC50 [nM]	SMILES
100 to 1000	COC[C@@H]1CCCN1CCC(=O)Nc1cc(-c2nc(-c3ccccc3)c(-c3nnc[nH]3)s2)ccn1
< 100	Cc1nn2ccccc2c1-c1nc(-c2ccsc2)c(-c2nnc[nH]2)s1
< 100	Cc1nn2ccccc2c1-c1nc(C2CCCCC2)c(-c2nnc[nH]2)s1
100 to 1000	c1ccc(-c2nc(-c3cnn4ccccc34)sc2-c2nnc[nH]2)cc1
< 100	Cc1nc2ccc(C(O)CO)cn2c1-c1nc(-c2ccccc2)c(-c2nnc[nH]2)s1 (stereo not drawn)
100 to 1000	CCOc1nc(-c2ccnc(NC(=O)C3CCCC3)c2)sc1-c1nnc[nH]1
< 100	Cc1nn2ccc(OC3CCNCC3)cc2c1-c1nc(-c2ccccc2)c(-c2nc[nH]n2)s1
< 100	CC(=O)Nc1cc(-c2nc(-c3ccc(Cl)cc3Cl)c(-c3nnc[nH]3)s2)ccn1
100 to 1000	CC(=O)Nc1cc(-c2nc(-c3ccc(Cl)cc3Cl)c(-c3nc(C)c(C)[nH]3)s2)ccn1
< 100	CC(=O)Nc1cc(-c2nc(-c3ccc(C)cc3)c(-c3ncc[nH]3)s2)ccn1
< 100	COCC(=O)Nc1cc(-c2sc(-c3nnc[nH]3)c(-c3ccc(Cl)cc3Cl)c2C#N)ccn1
100 to 1000	CC(=O)Nc1cc(-c2nc(-c3cccc(OC(F)(F)F)c3)c(-c3ncc[nH]3)s2)ccn1
< 100	Cc1nn2ccc(OCCN3CCN(C)CC3)cc2c1-c1nc(-c2ccccc2)c(-c2nc[nH]n2)s1
100 to 1000	Cc1nc2ccc(Br)cn2c1-c1nc(-c2ccccc2)c(-c2nc[nH]n2)s1
100 to 1000	O=C(CCSc1ccccc1)Nc1cc(-c2nc(-c3ccccc3)c(-c3nnc[nH]3)s2)ccn1
< 100	N#Cc1c(-c2ccnc(NCCO)n2)sc(-c2nnc[nH]2)c1-c1ccc(Cl)cc1Cl
100 to 1000	CC(=O)Nc1cc(-c2nc(-c3cccc(C)c3)c(-c3ncc[nH]3)s2)ccn1
< 100	CNC(=O)Nc1cc(-c2sc(-c3ncc[nH]3)c(-c3ccc(Cl)cc3Cl)c2C#N)ccn1
100 to 1000	CCOc1nc(-c2ccnc(NC(=O)c3cc(C)on3)c2)sc1-c1nnc[nH]1

IC50 [nM]	SMILES
100 to 1000	Cc1nn2ccccc2c1-c1nc(-c2cnn(Cc3cccnc3)c2)c(-c2nc[nH]n2)s1
100 to 1000	CC(=O)Nc1cc(-c2nc(-c3ccc(Cl)cc3)c(-c3ncc[nH]3)s2)ccn1
100 to 1000	Cc1nn2ccccc2c1-c1nc(-c2ccc(N3CCOCC3)nc2)c(-c2nc[nH]n2)s1
< 100	Cc1nn2ccc(OCCN3CCN(C)C(=O)C3)cc2c1-c1nc(-c2ccccc2)c(-c2nc[nH]n2)s1
< 100	CNc1nccc(-c2sc(-c3nnc[nH]3)c(-c3ccc(Cl)cc3Cl)c2C#N)n1
100 to 1000	N#Cc1c(-c2ccnc(NC(=O)c3ccncc3)c2)sc(-c2nnc[nH]2)c1-c1ccc(Cl)cc1Cl
< 100	Cc1nn2ccccc2c1-c1nc(-c2c(F)cccc2Cl)c(-c2nc[nH]n2)s1
< 100	CC(=O)Nc1cc(-c2sc(-c3nnc[nH]3)c(-c3ccc(Cl)cc3Cl)c2C#N)ccn1
< 100	Cc1nn2ccc(OCCN3CCOCC3)cc2c1-c1nc(-c2ccccc2)c(-c2nnc[nH]2)s1
100 to 1000	CC(=O)Nc1cc(-c2nc(-c3ccsc3)c(-c3ncc[nH]3)s2)ccn1
100 to 1000	N#Cc1c(-c2cc(N)ncn2)sc(C(N)=O)c1-c1ccc(Cl)cc1Cl
< 100	O=C1CCc2c(-c3nc(-c4ccc(Cl)cc4Cl)c(-c4ncc[nH]4)s3)ccnc2N1
< 100	CC(=O)NCCOc1ccn2nc(C)c(-c3nc(-c4ccccc4)c(-c4nc[nH]n4)s3)c2c1
< 100	CC(=O)Nc1cc(-c2nc(-c3cc(Cl)ccc3Cl)c(-c3ncc[nH]3)s2)ccn1
100 to 1000	CC(=O)Nc1cc(-c2nc(-c3csc4ccccc34)c(-c3ncc[nH]3)s2)ccn1
< 100	CC(=O)Nc1cc(-c2cc(-c3ccc(Cl)cc3Cl)c(-c3ncc[nH]3)s2)ncn1
100 to 1000	N#Cc1c(-c2cc(N)nc(F)c2)sc(-c2nnc[nH]2)c1-c1ccc(Cl)cc1Cl
< 100	Nc1cc(-c2nc(-c3ccc(Cl)cc3Cl)c(-c3ncc[nH]3)s2)ccn1
100 to 1000	Nc1cc(-c2nc(-c3ccc(Cl)cc3Cl)c(-c3ncc[nH]3)s2)ncn1
